Laboratory results from US20250282728A1, “NITROGEN COMPRISING HETEROCYCLIC DERIVATIVES FOR THE TREATMENT OF DISORDERS ASSOCIATED WITH GPR55 RECEPTOR” (Cerevance, Inc., priority 2022, published 2025).

What was measured:
rat GPR55 = target: T1, rat GPR55 (Rattus norvegicus, UniProt F1MAK4); experiment: Ca2+ mobilization assay (FLIPR, Calcium5 dye), rat GPR55; format: cell-based; conditions: HEK293 cells co-expressing PK-tagged rat GPR55 and EA-tagged beta-arrestin; intracellular calcium increase
T1 construct: expressed in transfected cells; host or cells: HEK293 (human embryonic kidney) cells
T1 sequence (F1MAK4 1-319): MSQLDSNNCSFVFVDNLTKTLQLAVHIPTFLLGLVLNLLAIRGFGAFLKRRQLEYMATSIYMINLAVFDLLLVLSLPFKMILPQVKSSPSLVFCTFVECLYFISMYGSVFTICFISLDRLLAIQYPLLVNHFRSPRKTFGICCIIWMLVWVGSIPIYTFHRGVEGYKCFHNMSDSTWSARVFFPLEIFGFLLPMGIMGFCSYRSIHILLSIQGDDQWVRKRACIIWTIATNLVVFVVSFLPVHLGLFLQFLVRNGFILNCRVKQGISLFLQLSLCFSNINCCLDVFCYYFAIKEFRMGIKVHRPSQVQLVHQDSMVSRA
Description: (§1) This cell-based assay measures the ability of compounds to activate the GPR55 receptor by measuring changes in intracellular calcium levels. HEK293 (human embryonic kidney) cells co-expressing recombinant ProLink (PK) tagged human or rat GPR55 and Enzyme Acceptor (EA) tagged beta-arrestin were seeded into PDL-coated, black-walled clear-bottom 384 well plates in assay buffer (25 mM HEPES, HBSS, 1 mM Probenicid, 0.1% BSA, pH 7.4) containing Calcium5 dye (Molecular Devices). Cells were incubated in suspension with the Calcium5 dye for 1 hour at 37° C., 5% CO2. Dilution series of the compounds in assay buffer were added to the cells in duplicate wells and compound-mediated real-time increases in intracellular calcium concentration were recorded as increased fluorescence using the Molecular Devices FLIPR instrument. Kinetic traces were reduced to a numerical value by subtracting the minimum response from the maximum response.

[1] = test system: striatal medium spiny neurons; experiment: Electrophysiology assay: whole-cell patch clamp, firing frequency; format: cell-based, Wistar rat; conditions: rat striatal cultures, current steps 10-200 pA
Description: Selected compounds were tested in electrophysiology.
Striatal cultures were prepared as follows. Wistar rat embryos (E18) were sacrificed by cervical dislocation and brains removed into an ice-cold hanks balanced salt solution (HBSS) containing 10 mM HEPES, 1 mM sodium pyruvate and 0.035% sodium bicarbonate. The brain was hemisected, striata removed and placed in a papain solution (Worthington LK003150) for 10 min at 37° C. Tissue was then vigorously triturated until devoid of clumps, passed through a 70 μm mesh filter and centrifuged at 1000 rcf for 5 min. Supernatant was discarded and cells resuspended and centrifuged once more through an ovomucoid gradient before final resuspension in plating medium (containing EMEM 75%, FBS 10%, glutamate 12.5 μM, GlutaMax 0.5 mM, sodium pyruvate 10 mM, glucose 33.3 mM, HEPES […]). Cells were counted and spot plated onto 13 mm coverslips at a density of 200K. After 3 h, solution was topped up to 1 ml with growth medium (containing NBplus 98%, B27plus 2%, GlutaMax 0.5 mM). […]
Whole-cell patch clamp recordings were performed from visually identified medium spiny neurons. A step protocol was applied to inject current into the cell (10-200 pA, 10 pA steps, 500 ms) and resulting action potentials recorded. […] Frequency of firing was analysed off-line using Clampfit software.

human GPR55 = target: T2, human GPR55 (Homo sapiens, UniProt Q9Y2T6); experiment: Ca2+ mobilization assay (FLIPR, Calcium5 dye), human GPR55; format: cell-based; conditions: HEK293 cells co-expressing PK-tagged human GPR55 and EA-tagged beta-arrestin; intracellular calcium increase
T2 construct: expressed in transfected cells; host or cells: HEK293 (human embryonic kidney) cells
T2 sequence (Q9Y2T6 whole entry): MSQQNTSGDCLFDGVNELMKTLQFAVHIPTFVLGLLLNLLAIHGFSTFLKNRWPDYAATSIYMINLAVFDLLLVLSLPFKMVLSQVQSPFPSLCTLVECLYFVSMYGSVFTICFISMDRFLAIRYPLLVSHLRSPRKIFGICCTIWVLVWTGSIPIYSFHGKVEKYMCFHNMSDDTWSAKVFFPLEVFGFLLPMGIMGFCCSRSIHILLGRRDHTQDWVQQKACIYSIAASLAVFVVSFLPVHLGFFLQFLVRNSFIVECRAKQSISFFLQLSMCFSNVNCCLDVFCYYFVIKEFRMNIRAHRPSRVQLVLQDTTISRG
Description: as §1

In the case of `COc1cncc(-c2ccc(N[C@H](C)c3ccc(F)cc3)nc2)c1` [Example 6, (R)-N-(1-(4-fluorophenyl)ethyl)-5′-methoxy-[3,3′-bipyridin]-6-amine], the EC50 (rat GPR55) is reported as no more than 0.05 µM, the “firing frequency of medium spiny neurons relative to baseline” value ([1]; 10 μM, FIG. 2) is reported as “significantly reduced the frequency” and the EC50 (human GPR55) is reported as no more than 0.2 µM.
For `C[C@@H](Nc1cnc(-c2cncc(CC(F)F)c2)cn1)c1ccc(F)cc1` [Example 31, (R)-5-(5-(2,2-difluoroethyl)pyridin-3-yl)-N-(1-(4-fluorophenyl)ethyl)pyrazin-2-amine], the EC50 (rat GPR55) was no more than 0.05 µM, the “firing frequency of medium spiny neurons relative to baseline” value ([1]; 1 μM, FIG. 3) was “significantly reduced the frequency” and the EC50 (human GPR55) was no more than 0.05 µM.
`C[C@@H](Nc1cnc(-c2ccc3oc(=O)n(C)c3c2)cn1)c1ccc(F)cc1` [Example 62, (R)-5-(5-((1-(4-fluorophenyl)ethyl)amino)pyrazin-2-yl)-3-methylbenzo[d]oxazol-2(3H)-one] was tested, and the EC50 (rat GPR55) was no more than 1 µM and the EC50 (human GPR55) was no more than 1 µM.
In the case of `C[C@@H](Nc1ncc(-c2ccc3oc(=O)n(C)c3c2)cn1)c1ccc(F)cc1` [Example 63, (R)-5-(2-((1-(4-fluorophenyl)ethyl)amino)pyrimidin-5-yl)-3-methylbenzo[d]oxazol-2(3H)-one], the EC50 (rat GPR55) is reported as no more than 1 µM and the EC50 (human GPR55) is reported as no more than 1 µM.
In the case of `C[C@@H](Nc1ncc(-c2ccc3oc(=O)n(CCO)c3c2)nn1)c1ccc(F)cc1` [Example 65, (R)-5-(3-((1-(4-fluorophenyl)ethyl)amino)-1,2,4-triazin-6-yl)-3-(2-hydroxyethyl)benzo[d]oxazol-2(3H)-one], the EC50 (rat GPR55) is reported as no more than 5 µM and the EC50 (human GPR55) is reported as no more than 1 µM.
In the case of `COCn1c(=O)oc2ccc(-c3cnc(N[C@H](C)c4ccc(F)cc4)nn3)cc21` [Example 66, (R)-5-(3-((1-(4-fluorophenyl)ethyl)amino)-1,2,4-triazin-6-yl)-3-(methoxymethyl)benzo[d]oxazol-2(3H)-one], the EC50 (rat GPR55) is reported as no more than 1 µM and the EC50 (human GPR55) is reported as no more than 0.2 µM.
`CCn1c(=O)oc2ccc(-c3cnc(N[C@H](C)c4ccc(F)cc4)nn3)cc21` [Example 67, (R)-3-ethyl-5-(3-((1-(4-fluorophenyl)ethyl)amino)-1,2,4-triazin-6-yl)benzo[d]oxazol-2(3H)-one] gave an EC50 (rat GPR55) of no more than 1 µM and an EC50 (human GPR55) of no more than 0.2 µM.
For `C[C@@H](Nc1ncc(-c2ccc3oc(=O)n(C(F)F)c3c2)nn1)c1ccc(F)cc1` [Example 68, (R)-3-(difluoromethyl)-5-(3-((1-(4-fluorophenyl)ethyl)amino)-1,2,4-triazin-6-yl)benzo[d]oxazol-2(3H)-one], the EC50 (rat GPR55) was no more than 1 µM and the EC50 (human GPR55) was no more than 0.2 µM.
Work on `C[C@@H](Nc1ncc(-c2ccc3oc(=O)[nH]c3c2)nn1)c1ccc(F)cc1` [Example 69, (R)-5-(3-((1-(4-fluorophenyl)ethyl)amino)-1,2,4-triazin-6-yl)benzo[d]oxazol-2(3H)-one] yielded an EC50 (rat GPR55) of no more than 1 µM and an EC50 (human GPR55) of no more than 1 µM.
For `CSCn1c(=O)oc2ccc(-c3cnc(N[C@H](C)c4ccc(F)cc4)nn3)cc21` [Example 70, (R)-5-(3-((1-(4-fluorophenyl)ethyl)amino)-1,2,4-triazin-6-yl)-3-((methylthio)methyl)benzo[d]oxazol-2(3H)-one], the EC50 (rat GPR55) was no more than 0.2 µM and the EC50 (human GPR55) was no more than 0.2 µM.
`C[C@@H](Nc1ncc(-c2ccc3oc(=O)n(CCN(C)C)c3c2)nn1)c1ccc(F)cc1` [Example 71, (R)-3-(2-(dimethylamino)ethyl)-5-(3-((1-(4-fluorophenyl)ethyl)amino)-1,2,4-triazin-6-yl)benzo[d]oxazol-2(3H)-one] gave an EC50 (rat GPR55) of no more than 5 µM and an EC50 (human GPR55) of no more than 1 µM.
With `C[C@@H](Nc1ncc(-c2ccc3oc(=O)n(CS(C)(=O)=O)c3c2)nn1)c1ccc(F)cc1` [Example 72, (R)-5-(3-((1-(4-fluorophenyl)ethyl)amino)-1,2,4-triazin-6-yl)-3-((methylsulfonyl)methyl)benzo[d]oxazol-2(3H)-one] the EC50 (rat GPR55) was no more than 5 µM and the EC50 (human GPR55) was no more than 1 µM.
`C[C@@H](Nc1ncc(-c2ccc3oc(=O)n(C)c3c2)nn1)c1ccc(Cl)cc1` [Example 73, (R)-5-(3-((1-(4-chlorophenyl)ethyl)amino)-1,2,4-triazin-6-yl)-3-methylbenzo[d]oxazol-2(3H)-one] was tested, and the EC50 (rat GPR55) was no more than 5 µM and the EC50 (human GPR55) was no more than 1 µM.
`CC(Nc1ncc(-c2ccc3oc(=O)n(C)c3c2)nn1)c1ccc(C#N)cc1` (centres unmarked) [Example 74, 4-(1-((6-(3-methyl-2-oxo-2,3-dihydrobenzo[d]oxazol-5-yl)-1,2,4-triazin-3-yl)amino)ethyl)benzonitrile] showed an EC50 (rat GPR55) of no more than 5 µM and an EC50 (human GPR55) of no more than 1 µM.
`C[C@@H](Nc1ncc(-c2ccc3oc(=O)n(C)c3c2)nn1)c1ccc(F)cc1F` [Example 75, (R)-5-(3-((1-(2,4-difluorophenyl)ethyl)amino)-1,2,4-triazin-6-yl)-3-methylbenzo[d]oxazol-2(3H)-one] gave an EC50 (rat GPR55) of no more than 1 µM and an EC50 (human GPR55) of no more than 1 µM.
`C[C@@H](Nc1ncc(-c2ccc3oc(=O)n(C)c3c2)nn1)c1ccc(F)c(F)c1` [Example 76, (R)-5-(3-((1-(3,4-difluorophenyl)ethyl)amino)-1,2,4-triazin-6-yl)-3-methylbenzo[d]oxazol-2(3H)-one] showed an EC50 (rat GPR55) of no more than 1 µM and an EC50 (human GPR55) of no more than 1 µM.
For `C[C@@H](Nc1ccc(-c2ccc3c(c2)N(C)C(=O)C3(F)F)cn1)c1ccc(F)cc1` [Example 79, (R)-3,3-difluoro-6-(6-((1-(4-fluorophenyl)ethyl)amino)pyridin-3-yl)-1-methylindolin-2-one], the EC50 (rat GPR55) was no more than 5 µM and the EC50 (human GPR55) was no more than 5 µM.
`C[C@@H](Nc1ncc(-c2ccc3ocnc3c2)nn1)c1ccc(F)cc1` [Example 80, (R)-6-(benzo[d]oxazol-5-yl)-N-(1-(4-fluorophenyl)ethyl)-1,2,4-triazin-3-amine] gave an EC50 (rat GPR55) of no more than 1 µM and an EC50 (human GPR55) of no more than 0.2 µM.
In the case of `C[C@@H](Nc1ncc(-c2ccc3ncn(C)c3c2)nn1)c1ccc(F)cc1` [Example 81, (R)-N-(1-(4-fluorophenyl)ethyl)-6-(1-methyl-1H-benzo[d]imidazol-6-yl)-1,2,4-triazin-3-amine], the EC50 (rat GPR55) is reported as no more than 5 µM and the EC50 (human GPR55) is reported as no more than 1 µM.
`C[C@@H](Nc1ncc(-c2cnc3ncn(C)c3c2)nn1)c1ccc(F)cc1` [Example 82, (R)-N-(1-(4-fluorophenyl)ethyl)-6-(1-methyl-1H-imidazo[4,5-b]pyridin-6-yl)-1,2,4-triazin-3-amine] showed an EC50 (rat GPR55) of no more than 5 µM and an EC50 (human GPR55) of no more than 1 µM.
For `C[C@@H](Nc1ncc(-c2cnc3c(c2)ncn3C)nn1)c1ccc(F)cc1` [Example 83, (R)-N-(1-(4-fluorophenyl)ethyl)-6-(3-methyl-3H-imidazo[4,5-b]pyridin-6-yl)-1,2,4-triazin-3-amine], the EC50 (rat GPR55) was no more than 5 µM and the EC50 (human GPR55) was no more than 5 µM.
